Data on 13 molecules can be found in PubChem BioAssay (NCI).

Among the test systems are RPMI-8226 leukemia; NCI-H226 lung; SF-268 CNS; A549 NSCLC; HS 578T breast; SK-MEL-2 melanoma; HOP-62 NSCLC; SK-MEL-28 melanoma; HL-60(TB) leukemia; DU-145 prostate.
Experiment in all cases: NCI anticancer screen, dose series, 48 h

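96-well plates; 48 h exposure; 5 concentrations. Endpoints by linear interpolation between flanking doses. Not reached: highest tested concentration assigned. Abbreviation: GI50, concentration required for 50% inhibition of growth. TGI is the concentration that stops growth completely.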

As to `Oc1ccccc1-c1nn(CNc2ccc(Cl)cc2)c(=S)o1`, the GI50 was above 100 µM in the experiment on RPMI-8226 leukemia; 14.1 µM with NCI-H226 lung; 9.2 µM in the experiment with SF-268 CNS; 26.3 µM in the experiment with A549 NSCLC; above 100 µM in the experiment on HS 578T breast; above 100 µM in the experiment with SK-MEL-2 melanoma. The GI50 in the experiment with HOP-62 NSCLC is above 100 µM. Also, the TGI with RPMI-8226 leukemia is above 100 µM; in the experiment with NCI-H226 lung it was above 100 µM; with SF-268 CNS it was above 100 µM; with A549 NSCLC it was 99.2 µM; with HS 578T breast, above 100 µM; with SK-MEL-2 melanoma, above 100 µM. Also, the TGI in the experiment on HOP-62 NSCLC was above 100 µM.
`COc1ccc(C(=O)C2CCC(C(=O)O)C2)cc1` (stereo not given): the TGI in the experiment with RPMI-8226 leukemia, in the experiment with NCI-H226 lung, in the experiment on A549 NSCLC, in the experiment on SK-MEL-28 melanoma, in the experiment with SK-MEL-2 melanoma and in the experiment on HL-60(TB) leukemia was above 100 µM in each case. The molecule further had a TGI in the experiment with HOP-62 NSCLC above 100 µM.
On to `CSc1cc([C@@H]2C[C@H]2c2ccc(Cl)cc2)on1`, for which the GI50 in the experiment on RPMI-8226 leukemia was 22.7 µM; in the experiment with NCI-H226 lung it was 11.4 µM; in the experiment on SF-268 CNS, 21 µM; with A549 NSCLC, 21.6 µM; in the experiment on SK-MEL-28 melanoma, 24.5 µM; in the experiment with DU-145 prostate, 19.6 µM. In addition, the GI50 in the experiment on SK-MEL-2 melanoma is 25.2 µM; in the experiment on HOP-62 NSCLC, 13.8 µM. Also, the TGI with RPMI-8226 leukemia was 44.8 µM; with NCI-H226 lung, 36.8 µM; with SF-268 CNS it was 46.3 µM; with A549 NSCLC, above 100 µM; in the experiment with SK-MEL-28 melanoma, 96.7 µM; with DU-145 prostate, 42 µM. For the same molecule, the TGI in the experiment with SK-MEL-2 melanoma came out at 82.3 µM; in the experiment on HOP-62 NSCLC, 41.8 µM.
As for `COC(=O)CCC(=O)Nc1ccc(Cl)cc1C`, the TGI with RPMI-8226 leukemia, with NCI-H226 lung, with SF-268 CNS, in the experiment on A549 NSCLC, with SK-MEL-28 melanoma and in the experiment on SK-MEL-2 melanoma was above 100 µM each time. For the same molecule, the TGI is 13.6 µM with HL-60(TB) leukemia and above 100 µM in the experiment on HOP-62 NSCLC.
As to `CSC(=NC(=O)c1ccccc1Cl)SCCSC(=NC(=O)c1ccccc1Cl)SC`, the TGI with RPMI-8226 leukemia, in the experiment with NCI-H226 lung, in the experiment on SF-268 CNS, in the experiment on A549 NSCLC, in the experiment on SK-MEL-28 melanoma and in the experiment with SK-MEL-2 melanoma was above 100 µM throughout. Further, the TGI with HL-60(TB) leukemia and in the experiment with HOP-62 NSCLC was above 100 µM each time.
On to `CCC[CH2][Sn](=[O])[CH2]CCC`, for which the GI50 in the experiment with RPMI-8226 leukemia, in the experiment on NCI-H226 lung, in the experiment with SF-268 CNS, in the experiment with A549 NSCLC, in the experiment on SK-MEL-28 melanoma and in the experiment on SK-MEL-2 melanoma was above 50 µM each time. Besides, the GI50 was above 36.2 µM with HL-60(TB) leukemia and above 50 µM with HOP-62 NSCLC. For the same molecule, the TGI with RPMI-8226 leukemia, with NCI-H226 lung, in the experiment with SF-268 CNS, in the experiment on A549 NSCLC, in the experiment on SK-MEL-28 melanoma and in the experiment on SK-MEL-2 melanoma was above 50 µM each time. Moreover, the TGI in the experiment on HL-60(TB) leukemia and in the experiment with HOP-62 NSCLC was above 50 µM throughout.
`c1ccc(SC(Sc2ccccc2)=C2CCC2)cc1`: the TGI with RPMI-8226 leukemia, with SF-268 CNS, in the experiment on A549 NSCLC, in the experiment with SK-MEL-28 melanoma, in the experiment on SK-MEL-2 melanoma and with HL-60(TB) leukemia was above 100 µM throughout. In the experiment on HOP-62 NSCLC, this molecule showed a TGI above 100 µM.
On to `NC(=S)N1N=C2CCCCCC[C@@H]2[C@H]1c1ccccc1`, for which the TGI in the experiment with RPMI-8226 leukemia was 45 µM; in the experiment with NCI-H226 lung it was above 100 µM; with SF-268 CNS, above 100 µM; in the experiment with A549 NSCLC it was above 100 µM; in the experiment with SK-MEL-28 melanoma, above 100 µM; with SK-MEL-2 melanoma it was above 100 µM. The values for the TGI in the experiment on HL-60(TB) leukemia and with HOP-62 NSCLC were 51.7 µM and above 100 µM, respectively.
With `CCCCCCCCCCCCSC(=S)c1c(C)[nH]n(-c2ccccc2)c1=O`, the TGI in the experiment with RPMI-8226 leukemia is above 50 µM; with NCI-H226 lung, above 50 µM; in the experiment with SF-268 CNS, above 50 µM; with A549 NSCLC it was above 50 µM; in the experiment with SK-MEL-28 melanoma, above 50 µM; in the experiment on HL-60(TB) leukemia, 24.4 µM. The molecule also had a TGI in the experiment with HOP-62 NSCLC of 15.6 µM.
As to `COc1ccc2c(c1)c(-c1nc(-c3cn(C)c4ccncc34)cs1)cn2C`, the GI50 is 1.83 µM in the experiment on NCI-H226 lung; 2.07 µM in the experiment on SF-268 CNS; 1.93 µM in the experiment on A549 NSCLC; 1.71 µM in the experiment on SK-MEL-28 melanoma; 1.78 µM in the experiment on DU-145 prostate; 1.76 µM in the experiment with SK-MEL-2 melanoma. In addition, the GI50 was 1.96 µM in the experiment with HL-60(TB) leukemia and 1.9 µM in the experiment with HOP-62 NSCLC. Moreover, the TGI in the experiment with NCI-H226 lung was 3.75 µM; in the experiment with SF-268 CNS it was 4.4 µM; in the experiment with A549 NSCLC it was 3.99 µM; in the experiment on SK-MEL-28 melanoma, 3.15 µM; in the experiment with DU-145 prostate, 3.34 µM; in the experiment on SK-MEL-2 melanoma it was 3.28 µM. Besides, the TGI in the experiment with HL-60(TB) leukemia was found to be 4.49 µM; in the experiment with HOP-62 NSCLC, 3.62 µM.
`CC(=O)OCc1c(O)c2c([nH]c1=O)CCc1ccccc1-2`: the TGI in the experiment with RPMI-8226 leukemia was above 350 µM; in the experiment with NCI-H226 lung, above 350 µM; with SF-268 CNS it was 221 µM; in the experiment on A549 NSCLC, above 350 µM; in the experiment on SK-MEL-28 melanoma it was 130 µM; in the experiment with SK-MEL-2 melanoma it was above 35 µM. For the same molecule, the TGI was 210 µM in the experiment on HL-60(TB) leukemia and above 350 µM with HOP-62 NSCLC.
For `CCOC(=O)C12CCCC1(O)N(NC(=O)OC)C(C)=C2C(=O)OC` (stereo not given), the TGI in the experiment with RPMI-8226 leukemia is above 100 µM; in the experiment with NCI-H226 lung it was above 100 µM; with SF-268 CNS, above 100 µM; in the experiment with A549 NSCLC it was above 100 µM; in the experiment on SK-MEL-28 melanoma it was above 100 µM; with SK-MEL-2 melanoma, 47.3 µM. The TGI with HL-60(TB) leukemia and in the experiment with HOP-62 NSCLC was above 100 µM in each case.
Turning to `Cc1ccc(/C=C/C(=O)c2ccc(Cl)c(Cl)c2)cc1`, the TGI in the experiment on NCI-H226 lung, in the experiment with SF-268 CNS, with A549 NSCLC, in the experiment with SK-MEL-28 melanoma, with SK-MEL-2 melanoma and in the experiment on HL-60(TB) leukemia was above 100 µM each time. The TGI with HOP-62 NSCLC is above 100 µM.
